Source: patent US6677368B2, “4-aryl substituted indolinones” (Sugen, Inc., priority 2000, dated 2004)

Legend:
P38 = P38 (Homo sapiens, UniProt Q16539); experiment: P38 kinase inhibition; format: biochemical
MET = target: T1, MET (Homo sapiens, UniProt P08581); experiment: MET transphosphorylation assay; format: biochemical; conditions: GST fusion protein containing the Met kinase domain, poly(glu-tyr) substrate
T1 construct: Purified GST fusion protein containing the Met kinase domain, SUGEN, Inc
T1 sequence (P08581 1078-1345 limits assumed): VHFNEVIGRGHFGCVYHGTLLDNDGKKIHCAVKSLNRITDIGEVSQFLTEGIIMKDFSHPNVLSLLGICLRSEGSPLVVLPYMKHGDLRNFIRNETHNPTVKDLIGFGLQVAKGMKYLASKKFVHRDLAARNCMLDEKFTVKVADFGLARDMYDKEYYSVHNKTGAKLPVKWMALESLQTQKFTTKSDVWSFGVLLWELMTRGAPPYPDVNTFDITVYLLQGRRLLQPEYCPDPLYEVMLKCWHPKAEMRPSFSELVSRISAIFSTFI
Experimental: MET TRANSPHOSPHORYLATION ASSAY
This assay is used to measure phosphotyrosine levels on a poly(glutamic acid:tyrosine, 4:1) substrate as a means for identifying agonists/antagonists of met transphosphorylation of the substrate.
1. Corning 96-well ELISA plates, Corning Catalog #25805-96.
2. Poly(glu-tyr), 4:1, Sigma, Cat. No; P 0275.
5. Blocking Buffer: Dissolve 25 g Bovine Serum Albumin, Sigma Cat. No A-7888, in 500 ml PBS, filter through a […] filter.
6. Purified GST fusion protein containing the Met kinase domain, SUGEN, Inc.
8. 10% aqueous (MilliQue H2O) DMSO.
9. 10 mM aqueous (dH2O) Adenosine-5′-triphosphate, Sigma Cat. No. A-5394.
10. 2×Kinase Dilution Buffer: for 100 ml, mix 10 mL 1M HEPES at pH 7.5 with 0.4 mL 5% BSA/PBS, 0.2 mL 0.1 M sodium orthovanadate and 1 mL 5M sodium chloride in 88.4 mL dH2O.
11. 4×ATP Reaction Mixture: for 10 mL, mix 0.4 mL 1 M manganese chloride and 0.02 mL 0.1 M ATP in 9.56 mL dH2O.
12. 4×Negative Controls Mixture: for 10 mL, mix 0.4 mL 1 M manganese chloride in 9.6 mL dH2O.
13. NUNC 96-well V bottom polypropylene plates, Applied Scientific Catalog #S-72092
15. Antibody Dilution Buffer: for 100 mL, mix 10 mL 5% BSA/PBS, 0.5 mL 5% Carnation® Instant Milk in PBS and 0.1 mL 0.1 M sodium orthovanadate in 88.4 mL TBST.
16. Rabbit polyclonal antophosphotyrosine antibody, SUGEN, Inc.
17. Goat anti-rabbit horseradish peroxidase conjugated antibody, Biosource, Inc.
18. ABTS Solution: for 1 L, mix 19.21 g citric acid, 35.49 g Na2HPO4 and 500 mg ABTS with sufficient dH2O to make 1 L.
19. ABTS/H2O2: mix 15 mL ABST solution with 2μL H2O2 five minutes before use.
1. Coat ELISA plates with 2 μg Poly(Glu-Tyr) in 100 μL PBS, hold overnight at 4° C.
2. Block plate with 150 μL of 5% BSA/PBS for 60 min.
3. Wash plate twice with PBS then once with 50 mM Hepes buffer pH 7.4.
4. Add 50 μl of the diluted kinase to all wells. (Purified kinase is diluted with Kinase Dilution Buffer. Final concentration should be 10 ng/well.)
5. Add 25 μL of the test compound (in 4% DMSO) or DMSO alone (4% in dH2O) for controls to plate.
6. Incubate the kinase/compound mixture for 15 minutes.
7. Add 25 μL of 40 mM MnCl2 to the negative control wells.
8. Add 25 μL ATP/MnCl2 mixture to the all other wells (except the negative controls). Incubate for 5 min.
9. Add 25 μL 500 mM EDTA to stop reaction.
10. Wash plate 3× with TBST.
11. Add 100 μL rabbit polyclonal anti-Ptyr diluted 1:10,000 in Antibody Dilution Buffer to each well. Incubate, with shaking, at room temperature for one hour.
12. Wash plate 3× with TBST.
13. Dilute Biosource HRP conjugated anti-rabbit antibody 1:6,000 in Antibody Dilution buffer. Add 100 μL per well and incubate at room temperature, with shaking, for one hour.
14. Wash plate 1× with PBS.
15. Add 100 μl of ABTS/H2O2 solution to each well.
16. If necessary, stop the development reaction with the addition of 100 μl of 0.2M HCl per well.
17. Read plate on Dynatech MR7000 ELISA reader with the test filter at 410 nM and the reference filter at 630 nM.

Chain of P38 (Q16539 whole entry, the tested form may be a part): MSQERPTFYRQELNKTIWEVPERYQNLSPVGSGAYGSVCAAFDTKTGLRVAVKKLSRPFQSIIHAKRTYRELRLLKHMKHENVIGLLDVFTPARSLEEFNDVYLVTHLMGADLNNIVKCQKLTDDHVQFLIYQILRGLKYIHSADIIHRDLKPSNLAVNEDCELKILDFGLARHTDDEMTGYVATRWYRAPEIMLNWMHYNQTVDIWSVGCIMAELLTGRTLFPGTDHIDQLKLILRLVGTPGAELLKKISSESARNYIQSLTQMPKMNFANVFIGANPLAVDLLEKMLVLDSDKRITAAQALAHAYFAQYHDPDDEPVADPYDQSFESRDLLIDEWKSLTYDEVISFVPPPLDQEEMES

IC50 (P38) | IC50 (MET) | SMILES
> 10000 nM | 78 nM | CCN(CC)CCNC(=O)c1c(C)[nH]c(/C=C2\C(=O)Nc3cccc(-c4ccccc4)c32)c1C [Example 3, 2,4-Dimethyl-5-(2-oxo-4-phenyl-1,2-dihydro-indol-3-ylidenemethyl)-1H-pyrrole-3-carboxylic Acid (2-Diethylamino-ethyl)-amide]
> 10000 nM | 700 nM | Cc1[nH]c(/C=C2\C(=O)Nc3cccc(-c4ccc(F)cc4)c32)c(C)c1C(=O)N1CCN(C)CC1 [Example 4, 3-[3,5-Dimethyl-4-(4-methyl-piperazine-1-carbonyl)-1H-pyrrol-2-ylmethylene]-4-(4-fluoro-phenyl)-1,3-dihydro-indol-2-one]
> 10000 nM | 73 nM | Cc1[nH]c(/C=C2\C(=O)Nc3cccc(-c4ccc(F)cc4)c32)c(C)c1C(=O)NCCN1CCCC1 [Example 6, 5-[4-(4-Fluoro-phenyl)-2-oxo-1,2-dihydro-indol-3-ylidenemethyl]-2,4-dimethyl-1H-pyrrole-3-carboxylic Acid (2-Pyrrolidin-1-yl-ethyl)-amide]
> 10000 nM | 230 nM | Cc1cc(C(=O)N2CC[C@H](N(C)C)C2)c(/C=C2\C(=O)Nc3cccc(-c4ccc(F)cc4)c32)[nH]1 [Example 10, 3-[3-((S)-3-Dimethylamino-pyrrolidine-1-carbonyl)-5-methyl-1H-pyrrol-2-ylmethylene]-4-(4-fluoro-phenyl)-1,3-dihydro-indol-2-one]
> 10000 nM | 100 nM | CCN(CC)CCNC(=O)c1c(C)[nH]c(/C=C2\C(=O)Nc3cccc(-c4cccc(F)c4)c32)c1C [Example 13, 5-[4-(3-Fluoro-phenyl)-2-oxo-1,2-dihydro-indol-3-ylidenemethyl]-2,4-dimethyl-1H-pyrrole-3-carboxylic Acid (2-Diethylamino-ethyl)-amide]
4900 nM | 370 nM | Cc1[nH]c(/C=C2\C(=O)Nc3cccc(-c4cccc(F)c4)c32)c(C)c1C(=O)NCCn1ccnn1 [Example 15, 5-[4-(3-Fluoro-phenyl)-2-oxo-1,2-dihydro-indol-3-ylidenemethyl]-2,4-dimethyl-1H-pyrrole-3-carboxylic Acid (2-[1,2,3]Triazol-1-yl-ethyl)-amide]
9500 nM | 270 nM | CCOC(=O)c1c(C)[nH]c(/C=C2\C(=O)Nc3cccc(-c4cccc(F)c4)c32)c1CCCN1CCN(C)CC1 [Example 18, 5-[4-(3-Fluoro-phenyl)-2-oxo-1,2-dihydro-indol-3-ylidenemethyl]-2-methyl-4-[3-(4-methyl-piperazin-1-yl)-propyl]-1H-pyrrole-3-carboxylic Acid Ethyl Ester]
> 10000 nM | 520 nM | Cc1[nH]c(/C=C2\C(=O)Nc3cccc(-c4ccc(Cl)cc4)c32)c(C)c1C(=O)N1CCN(C)CC1 [Example 20, 4-(4-Chloro-phenyl)-3-[3,5-dimethyl-4-(4-methyl-piperazine-1-carbonyl)-1H-pyrrol-2-ylmethylene]-1,3-dihydro-indol-2-one]
13100 nM | 140 nM | Cc1[nH]c(/C=C2\C(=O)Nc3cccc(-c4ccc(Cl)cc4)c32)c(C)c1C(=O)NCCN1CCCC1 [Example 22, 5-[4-(4-Chloro-phenyl)-2-oxo-1,2-dihydro-indol-3-ylidenemethyl]-2,4-dimethyl-1H-pyrrole-3-carboxylic Acid (2-Pyrrolidin-1-yl-ethyl)-amide]
> 10000 nM | 110 nM | Cc1cc(C(=O)N2CC[C@@H](N(C)C)C2)c(/C=C2\C(=O)Nc3cccc(-c4ccc(Cl)cc4)c32)[nH]1 [Example 25, 4-(4-Chloro-phenyl)-3-[3-((R)-3-dimethylamino-pyrrolidine-1-carbonyl)-5-methyl-1H-pyrrol-2-ylmethylene]-1,3-dihydro-indol-2-one]
> 10000 nM | 150 nM | Cc1cc(C(=O)N2C[C@@H](C)N[C@@H](C)C2)c(/C=C2\C(=O)Nc3cccc(-c4ccc(Cl)cc4)c32)[nH]1 [Example 27]
> 10000 nM | 65 nM | CCN(CC)CCNC(=O)c1c(C)[nH]c(/C=C2\C(=O)Nc3cccc(-c4cccc(Cl)c4)c32)c1C [Example 29, 5-[4-(3-Chloro-phenyl)-2-oxo-1,2-dihydro-indol-3-ylidenemethyl]-2,4-dimethyl-1H-pyrrole-3-carboxylic Acid (2-Diethylamino-ethyl)-amide]
> 10000 nM | 120 nM | Cc1cc(C(=O)N2CC[C@H](N(C)C)C2)c(/C=C2\C(=O)Nc3cccc(-c4cccc(Cl)c4)c32)[nH]1 [Example 32, 4-(3-Chloro-phenyl)-3-[3-((S)-3-dimethylamino-pyrrolidine-1-carbonyl)-5-methyl-1H-pyrrol-2-ylmethylene]-1,3-dihydro-indol-2-one]
> 10000 nM | 130 nM | Cc1cc(C(=O)NCCn2ccnn2)c(/C=C2\C(=O)Nc3cccc(-c4cccc(Cl)c4)c32)[nH]1 [Example 34, 2-[4-(3-Chloro-phenyl)-2-oxo-1,2-dihydro-indol-3-ylidenemethyl]-5-methyl-1H-pyrrole-3-carboxylic Acid (2-[1,2,3]Triazol-1-yl-ethyl)-amide]
> 10000 nM | 340 nM | Cc1cc(C(=O)N2C[C@@H](C)N[C@@H](C)C2)c(/C=C2\C(=O)Nc3cccc(-c4cccc(Cl)c4)c32)[nH]1 [Example 35, 4-(3-Chloro-phenyl)-3-[3-((cis)-3,5-dimethyl-piperazine-1-carbonyl)-5-methyl-1H-pyrrol-2-ylmethylene]-1,3-dihydro-indol-2-one]
– | 43 nM | CCN(CC)CCNC(=O)c1c(C)[nH]c(/C=C2\C(=O)Nc3cccc(-c4cccc(Br)c4)c32)c1C [Example 63, 5-[4-(3-Bromo-phenyl)-2-oxo-1,2-dihydro-indol-3-ylidenemethyl]-2,4-dimethyl-1H-pyrrole-3-carboxylic Acid (2-Diethylamino-ethyl)-amide]
– | 80 nM | Cc1[nH]c(/C=C2\C(=O)Nc3cccc(-c4ccccc4F)c32)c(C)c1C(=O)N1CCN(C)CC1 [Example 93, 3-[3,5-Dimethyl-4-(4-methyl-piperazine-1-carbonyl)-1H-pyrrol-2-ylmethylene]-4-(2-fluoro-phenyl)-1,3-dihydro-indol-2-one]
– | 180 nM | Cc1cc(C(=O)NCCn2ccnn2)c(/C=C2\C(=O)Nc3cccc(-c4ccccc4F)c32)[nH]1 [Example 99, 2-[4-(2-Fluoro-phenyl)-2-oxo-1,2-dihydro-indol-3-ylidenemethyl]-5-methyl-1H-pyrrole-3-carboxylic Acid (2-[1,2,3]Triazol-1-yl-ethyl)-amide]
– | 580 nM | Cc1[nH]c(/C=C2\C(=O)Nc3cccc(-c4cccc(C(F)(F)F)c4)c32)c(C)c1C(=O)N1CCN(C)CC1 [Example 104, 3-[3,5-Dimethyl-4-(4-methyl-piperazine-1-carbonyl)-H-pyrrol-2-ylmethylene]-4-(3-trifluoromethyl-phenyl)-1,3-dihydro-indol-2-one]
– | 59 nM | Cc1cc(C(=O)NCCN2CCCC2)c(/C=C2\C(=O)Nc3cccc(-c4ccc(F)c(Cl)c4)c32)[nH]1 [Example 119, 2-[4-(3-Chloro-4-fluoro-phenyl)-2-oxo-1,2-dihydro-indol-3-ylidenemethyl]-5-methyl-1H-pyrrole-3-carboxylic Acid (2-Pyrrolidin-1-yl-ethyl)-amide]
– | 680 nM | CCN(CC)CCNC(=O)c1c(C)[nH]c(/C=C2\C(=O)Nc3cccc(-c4ccc(OC(F)(F)F)cc4)c32)c1C [Example 140, 2,4-Dimethyl-5-[2-oxo-4-(4-trifluoromethoxy-phenyl)-1,2-dihydro-indol-3-ylidenemethyl]-1H-pyrrole-3-carboxylic Acid (2-Diethylamino-ethyl)-amide]
